Laboratory results as given in ChEMBL document CHEMBL1148029, “Synthesis and radiopharmacological characterization of 2beta-carbo-2'-[18F]fluoroethoxy-3beta-(4-bromo-phenyl)tropane ([18F]MCL-322) as a PET radiotracer for imaging the dopamine transporter (DAT)” (Bioorg Med Chem, 2007).

How the values were obtained:
Striatum [1] = test: Biodistribution in Wistar rat striatum at 300 uCi, iv after 60 mins in presence of GBR-12909; format: ADME, organism-based; conditions: in vivo, 1 h
Cerebellum [2] = test: Biodistribution in Wistar rat cerebellum at 300 uCi, iv after 60 mins in presence of citalopram; format: ADME, organism-based; conditions: in vivo, 1 h
Muscle tissue [3] = test: Biodistribution in Wistar rat muscle at 300 uCi, iv after 240 mins; format: ADME, organism-based; conditions: in vivo, 4 h
Cortex [4] = test: Biodistribution in Wistar rat cortex at 300 uCi, iv after 60 mins; format: ADME, organism-based; conditions: in vivo, 1 h
[5] = Biodistribution in Wistar rat rest of brain at 300 uCi, iv after 60 mins; format: ADME, organism-based; conditions: in vivo, 1 h
Testes [6] = test: Biodistribution in Wistar rat testes at 300 uCi, iv after 5 mins; format: ADME, organism-based, Testis; conditions: in vivo
Harderian gland [7] = test: Biodistribution in Wistar rat harderian glands at 300 uCi, iv after 20 mins; format: ADME, organism-based; conditions: in vivo
[8] = Biodistribution in Wistar rat hair and skin at 300 uCi, iv after 5 mins; format: ADME, organism-based; conditions: in vivo
Kidney = test: Biodistribution in Wistar rat kidney at 300 uCi, iv after 120 mins; format: ADME, organism-based; conditions: in vivo, 2 h
Cortex [9] = test: Biodistribution in Wistar rat cortex at 300 uCi, iv after 60 mins in presence of citalopram; format: ADME, organism-based; conditions: in vivo, 1 h
Striatum [10] = test: Biodistribution in Wistar rat striatum at 300 uCi, iv after 60 mins; format: ADME, organism-based; conditions: in vivo, 1 h
Hippocampus [11] = test: Biodistribution in Wistar rat hippocampus at 300 uCi, iv after 20 mins; format: ADME, organism-based; conditions: in vivo
Heart [12] = test: Biodistribution in Wistar rat heart at 300 uCi, iv after 120 mins; format: ADME, organism-based; conditions: in vivo, 2 h
Spleen = test: Biodistribution in Wistar rat spleen at 300 uCi, iv after 240 mins; format: ADME, organism-based; conditions: in vivo, 4 h
Testes [13] = test: Biodistribution in Wistar rat testes at 300 uCi, iv after 60 mins; format: ADME, organism-based, Testis; conditions: in vivo, 1 h
Lung = test: Biodistribution in Wistar rat lung at 300 uCi, iv after 240 mins; format: ADME, organism-based; conditions: in vivo, 4 h
Brain = test: Biodistribution in Wistar rat rest of brain at 300 uCi, iv after 60 mins in presence of citalopram; format: ADME, organism-based; conditions: in vivo, 1 h
Harderian gland [14] = test: Biodistribution in Wistar rat harderian glands at 300 uCi, iv after 120 mins; format: ADME, organism-based; conditions: in vivo, 2 h
Blood = test: Biodistribution in Wistar rat blood at 300 uCi, iv after 60 mins in presence of citalopram; format: ADME, organism-based; conditions: in vivo, 1 h
Cerebellum [15] = test: Biodistribution in Wistar rat cerebellum at 300 uCi, iv after 240 mins; format: ADME, organism-based; conditions: in vivo, 4 h
Muscle tissue [16] = test: Biodistribution in Wistar rat muscle at 300 uCi, iv after 60 mins; format: ADME, organism-based; conditions: in vivo, 1 h
Adrenal = test: Biodistribution in Wistar rat adrenal gland at 300 uCi, iv after 60 mins; format: ADME, organism-based, Adrenal tissue; conditions: in vivo, 1 h
Hippocampus [17] = test: Biodistribution in Wistar rat hippocampus at 300 uCi, iv after 60 mins in presence of citalopram; format: ADME, organism-based; conditions: in vivo, 1 h
[18] = Biodistribution in Wistar rat hair and skin at 300 uCi, iv after 20 mins; format: ADME, organism-based; conditions: in vivo
Striatum [19] = test: Biodistribution in Wistar rat striatum at 300 uCi, iv after 120 mins; format: ADME, organism-based; conditions: in vivo, 2 h
Hippocampus [20] = test: Biodistribution in Wistar rat hippocampus at 300 uCi, iv after 60 mins in presence of GBR-12909; format: ADME, organism-based; conditions: in vivo, 1 h
Hippocampus [21] = test: Biodistribution in Wistar rat hippocampus at 300 uCi, iv after 5 mins; format: ADME, organism-based; conditions: in vivo
Heart [22] = test: Biodistribution in Wistar rat heart at 300 uCi, iv after 240 mins; format: ADME, organism-based; conditions: in vivo, 4 h
Liver = test: Biodistribution in Wistar rat liver at 300 uCi, iv after 60 mins; format: ADME, organism-based; conditions: in vivo, 1 h
[23] = Biodistribution in Wistar rat brown fat at 300 uCi, iv after 60 mins; format: ADME, organism-based, Brown adipose tissue; conditions: in vivo, 1 h

CN1C2CCC1C(C(=O)OCC[18F])C(c1ccc(Br)cc1)C2 (stereo not given)
Drug uptake (Striatum [1]): 1.51 % ID/g | Drug uptake (Cerebellum [2]): 0.71 % ID/g | Drug uptake (Muscle tissue [3]): 0.04 % ID/g | Drug uptake (Cortex [4]): 1 % ID/g | Drug uptake [5]: 1.1 % ID/g | Drug uptake (Testes [6]): 0.33 % ID/g | Drug uptake (Harderian gland [7]): 2.04 % ID/g | Drug uptake [8]: 0.47 % ID/g | Drug uptake (Kidney): 1.84 % ID/g | Drug uptake (Cortex [9]): 0.97 % ID/g | Drug uptake (Striatum [10]): 3.71 % ID/g | Drug uptake (Hippocampus [11]): 1.99 % ID/g | Drug uptake (Heart [12]): 0.12 % ID/g | Drug uptake (Spleen): 0.12 % ID/g | Drug uptake (Testes [13]): 0.5 % ID/g | Drug uptake (Lung): 0.27 % ID/g | Drug uptake (Brain): 1.56 % ID/g | Drug uptake (Harderian gland [14]): 1.82 % ID/g | Drug uptake (Blood): 0.052 % ID/g | Drug uptake (Cerebellum [15]): 0.09 % ID/g | Drug uptake (Muscle tissue [16]): 0.16 % ID/g | Drug uptake (Adrenal): 0.58 % ID/g | Drug uptake (Hippocampus [17]): 1.36 % ID/g | Drug uptake [18]: 0.47 % ID/g | Drug uptake (Striatum [19]): 0.39 % ID/g | Drug uptake (Hippocampus [20]): 1.06 % ID/g | Drug uptake (Hippocampus [21]): 2.37 % ID/g | Drug uptake (Heart [22]): 0.07 % ID/g | Drug uptake (Liver): 11.8 % ID/g | Drug uptake [23]: 0.39 % ID/g
